How the values were obtained:
Assay in all cases: relative viability (nuclei count vs DMSO), 5 days (fraction); higher = more cells survive
Halofuginone = compound: O=C(C[C@H]1NCCC[C@@H]1O)Cn1cnc2cc(Br)c(Cl)cc2c1=O (racemic) [Halofuginone]
Summary of the method: (§1)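 On vehicle-anchored 1536-well plates, lung cancer cell lines held overnight at 37 °C were pinned with five library-drug doses (not always all listed) spaced by √10. With no medium change over 5 days, they were then fixed, permeabilised and Hoechst-stained in one step and imaged at 4×. MetaXpress counted nuclei, and viability is the median across plates of treated-well over vehicle-well nuclei. Acceptance needed control CV below 25% and at least one doubling.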

Decitabine = compound: Nc1ncn([C@H]2C[C@H](O)[C@@H](CO)O2)c(=O)n1 [Decitabine]
Summary of the method: as §1

Cediranib = compound: COc1cc2c(Oc3ccc4[nH]c(C)cc4c3F)ncnc2cc1OCCCN1CCCC1 [Cediranib]
Summary of the method: as §1

| Cell Line | relative viability (Halofuginone; 0.001 µM) | relative viability (Halofuginone; 0.003162 µM) | relative viability (Halofuginone; 0.01 µM) | relative viability (Halofuginone; 0.03162 µM) | relative viability (Halofuginone; 0.1 µM) | relative viability (Decitabine; 0.04 µM) | relative viability (Decitabine; 0.1265 µM) | relative viability (Decitabine; 0.4 µM) | relative viability (Decitabine; 1.265 µM) | relative viability (Decitabine; 2 µM, anchor plate) | relative viability (Decitabine; 4 µM) | relative viability (Cediranib; 0.04 µM) | relative viability (Cediranib; 0.1265 µM) | relative viability (Cediranib; 0.4 µM) | relative viability (Cediranib; 1.265 µM) | relative viability (Cediranib; 4 µM) |
| --- | --- | --- | --- | --- | --- | --- | --- | --- | --- | --- | --- | --- | --- | --- | --- | --- |
| NCI-H1355 | 0.989 | 1.02 | 0.94 | 0.941 | 0.899 | 0.768 | 0.643 | 0.42 | 0.338 | 0.362 | 0.278 | 0.944 | 1.04 | 0.898 | 0.944 | 1.06 |
| NCI-H1395 | 0.984 | 0.872 | 0.809 | 0.868 | 0.768 | 0.627 | 0.671 | 0.729 | 0.508 | 0.744 | 0.528 | 0.885 | 0.832 | 0.887 | 0.884 | 0.993 |
| NCI-H1437 | 0.976 | 1.02 | 1.01 | 0.984 | 0.845 | 0.744 | 0.73 | 0.542 | 0.424 | 0.557 | 0.425 | 1.08 | 0.969 | 0.998 | 0.972 | 1.06 |
| NCI-H1563 | 1.02 | 1.06 | 0.885 | 0.664 | 0.486 | 1.07 | 1.04 | 1.43 | 0.986 | – | 1.03 | 0.97 | 1.39 | 1.03 | 0.961 | 1.13 |
| NCI-H1623 | 0.947 | 0.873 | 0.966 | 1.07 | 0.875 | 0.864 | 0.749 | 0.664 | 0.52 | – | 0.516 | 1 | 0.599 | 0.879 | 1.04 | 1.07 |
| NCI-H1648 | 1.12 | 0.809 | 1.06 | 0.951 | 1.13 | 0.82 | 0.733 | 0.474 | 0.387 | 0.509 | 0.366 | 0.627 | 0.423 | 0.71 | 0.773 | 0.791 |
| NCI-H1650 | 1 | 1.01 | 0.883 | 0.811 | 0.19 | 0.599 | 0.657 | 0.507 | 0.346 | 0.422 | 0.338 | 1 | 0.962 | 0.833 | 0.8 | 0.822 |
| NCI-H1651 | 0.983 | 1.14 | 0.966 | 0.934 | 0.735 | 0.954 | 1.01 | 0.961 | 0.799 | 0.64 | 0.767 | 0.977 | 0.963 | 0.96 | 0.951 | 0.999 |
| NCI-H1666 | 0.993 | 0.936 | 0.991 | 1.06 | 0.991 | 0.938 | 0.9 | 0.866 | 0.827 | 0.764 | 0.851 | 1.02 | 1.18 | 0.989 | 1.01 | 1.02 |
| NCI-H1703 | 0.931 | 0.994 | 0.886 | 0.668 | 0.519 | 0.772 | 0.669 | 0.288 | 0.332 | – | 0.246 | 0.819 | 0.677 | 0.471 | 0.363 | 0.393 |
| NCI-H1734 | 1 | 1.06 | 0.985 | 0.984 | 0.751 | 0.804 | 0.829 | 0.69 | 0.498 | 0.517 | 0.363 | 0.897 | 0.951 | 0.96 | 0.821 | 1.09 |
| NCI-H1755 | 1.02 | 1.04 | 1.01 | 1.01 | 0.978 | 0.95 | 0.949 | 0.848 | 0.598 | 0.717 | 0.515 | 1.1 | 0.861 | 0.954 | 1.05 | 1.01 |
| NCI-H1792 | 0.923 | 0.897 | 0.902 | 0.913 | 0.633 | 0.802 | 0.857 | 0.889 | 0.534 | 0.526 | 0.507 | 0.862 | 0.846 | 0.84 | 0.931 | 0.795 |
| NCI-H1793 | 1.01 | 0.811 | 0.904 | 1.04 | 0.557 | 0.715 | 0.756 | 0.707 | 0.498 | 0.547 | 0.398 | 0.786 | 0.891 | 0.704 | – | 0.978 |
| NCI-H1915 | 0.957 | 1.13 | 0.959 | 0.998 | 0.943 | 0.502 | 0.421 | 0.329 | 0.26 | 0.265 | 0.292 | 0.969 | 0.832 | 0.96 | 1.04 | 0.996 |
| NCI-H1944 | 0.962 | 0.951 | 0.918 | 0.963 | 0.922 | 0.9 | 0.869 | 0.541 | 0.381 | 0.429 | 0.441 | 0.93 | 0.955 | 0.918 | 0.883 | 0.936 |
| NCI-H1975 | 1.05 | 0.943 | 0.953 | 0.692 | 0.442 | 0.594 | 0.526 | 0.372 | 0.352 | 0.394 | 0.358 | 0.974 | 0.983 | 0.914 | 0.956 | 0.939 |
| NCI-H1993 | 1.23 | 0.978 | 0.893 | 1.11 | 0.749 | 0.863 | 0.844 | 0.929 | 0.755 | 0.596 | 0.757 | 0.73 | 0.878 | 0.857 | 0.726 | 0.87 |
